Laboratory results reported in publication PMC11322497 (Frontiers in Pharmacology, 2024).
Like-named read-outs stand apart in the source and are kept apart here.

Tests used:
rabbit galectin-3 = target: T1, rabbit galectin-3 (Oryctolagus cuniculus, UniProt P47845); assay: Galectins fluorescence polarization binding assay
T1 construct: made in house
Protocol: Briefly, FP was measured from above in 96-well microtiter plates (black polystyrene; Costar, Corning, NY) using a POLARStar® instrument (BMG Labtech, Ortenberg, Germany). The final sample volume in each well was 200 μL. For inhibition assays, 100 μL of galectin and probe at fixed concentration was mixed with 100 μL of inhibitor solution and FP was measured as described above. Control wells containing only fluorescent probe or fluorescein were included.
All dilutions and measurements were done in PBS with plates incubated at room temperature for 1 h.

[1] = tested on: high fat diet (HFD) rabbit model of metabolic-associated steatohepatitis (MASH); assay: HFD rabbit study, acute 5-day treatment: liver histomorphology (Giemsa, Masson's trichrome, PSR, SHG); format: in vivo, New Zealand White rabbits; conditions: 30 mg/kg p.o. 5 days, week 12; for Ballooning score 0 (no ballooning), share of animals / Ballooning score 1 (few ballooned cells), share of animals / Ballooning score 2 (prominent ballooning), share of animals / Fibrosis (Ishak Score) 0, share of animals / Fibrosis (Ishak Score) 1, share of animals / Fibrosis (Ishak Score) 2, share of animals / Fibrosis (Ishak Score) 3, share of animals / Fibrosis (Ishak Score) 4, share of animals / Fibrosis (Ishak Score) 5, share of animals / Inflammation score 0 (no foci), share of animals / Inflammation score 1 (<2 foci), share of animals / Inflammation score 2 (2–4 foci), share of animals / Inflammation score 3 (> 4 foci), share of animals: n = 3
Protocol: After 1 week of standard diet, animals (n = 12) were randomly assigned to the following groups (Table 1A): • Control rabbits continued to receive a regular diet (RD) for 12 weeks and were treated for 5 days (days 1–5, p.o.), during the last week before culling, with either vehicle; RD+1W Veh group] or GB1211 (30 mg/kg; RD + 1W 30 mg group); • Rabbits received a high fat diet (HFD) for 12 weeks (RD implemented with 0.5% cholesterol and 2.5% vegetable fat) and were treated for 5 days (days 1–5, p.o.), during the last week before culling, with either vehicle (HFD + 1W Veh group) or GB1211 (30 mg/kg; HFD + 1W 30 mg group).
Liver specimens were fixed in 10% buffered formalin (Sigma-Aldrich Corp., St. Louis, MO), paraffin embedded and sectioned at a thickness of 5 μm with a microtome. The slides were stained with hematoxylin and eosin (H&E; both Bio-Optica, Milan, Italy), following standard protocols for histological analysis, to evaluate the general morphology and tissue structure, and then analyzed to evaluate inflammation and […] using Giemsa and Masson’s trichrome staining, respectively. Briefly, deparaffinized and rehydrated sections were incubated with Giemsa (Bio-Optica) in distilled water at ratio 1:1 or with Masson’s trichrome (Bio-Optica), following the manufacturer’s instructions, as previously described ([Vignozzi et al., 2014]). To evaluate lipid accumulation, liver specimens were also cryosectioned at a thickness of 8 μm, fixed with 4% paraformaldehyde, treated for 2–5 min with isopropanol and stained with Oil Red O (Bio-Optica) for 20 min, following the manufacturer’s instructions.
In liver, collagen content evaluation for fibrosis grade and quantification was conducted by staining using Picrosirius Red Stain kit (Bio-Optica), as per manufacturer’s instructions. Briefly, deparaffinized and rehydrated sections were incubated with the staining solution for 50 min, rinsed with the appropriate reagents and with distilled water, dehydrated through ascending alcohols and xylene, and mounted, as previously described ([Comeglio et al., 2017]).
Blinded images of unstained sections of liver were acquired using a Genesis®200 imaging system (HistoIndex, Singapore) and analyzed by Second Harmonic Generation (SHG) microscopy to visualize collagen and Two-Photon Excitation Fluorescence (TPEF) microscopy to visualize the other tissue structures as previously described ([Liu et al., 2017]).
Briefly, deparaffinized tissue sections were imaged by SHG at 780 nm (specific to collagen-1 and -3) simultaneously with TPEF at 780 nm (collected at 550 nm to visualize tissue structure). Both were captured at a ×20 objective and […] resolution. A specialized artificial intelligence analysis program developed by, and proprietary to, HistoIndex were employed to identify and quantify collagen fibres across liver regions with outputs highlighted below and as previously described ([Liu et al., 2017]): • SHG Overall Area (Percentage of total collagen in overall region). • Strings Overall N. (Number of collagen strings in overall region). • Strings Overall Length (Total length of all collagen strings in overall region). • Strings PT Area (Total area of all collagen strings in portal tract region). • Strings PT Length (Total length of all collagen strings in portal tract region). • Strings PS Area (Total area of all collagen strings in peri-sinusoidal region). • Strings PS Length (Total length of all collagen strings in peri-sinusoidal region).
The grading system for inflammation enumerated the number of foci in each 200x field assessed, according to [Kleiner et al. (2005)]: 0 = no foci; 1 = <2 foci; 2 = 2–4 foci; 3 => 4 foci. As shown in the contingency table (Table 3), statistically higher scoring grades were recorded in the HFD+1W Veh group, compared to RD+1W Veh and HFD + 1W 30 mg (both p < 0.05). […]

[2] = HFD rabbits, p < 0.001 vs. HFD + 1W Veh

T1 sequence (P47845 whole entry): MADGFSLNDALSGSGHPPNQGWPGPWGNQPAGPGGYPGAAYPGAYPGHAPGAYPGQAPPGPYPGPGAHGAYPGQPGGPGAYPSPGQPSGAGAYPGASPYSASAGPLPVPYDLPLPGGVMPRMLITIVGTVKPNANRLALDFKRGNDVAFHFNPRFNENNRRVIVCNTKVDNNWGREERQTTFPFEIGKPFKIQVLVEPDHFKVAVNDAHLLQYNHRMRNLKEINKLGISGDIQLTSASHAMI

## OC[C@H]1O[C@H](Sc2cncc(Br)c2)[C@H](O)[C@@H](n2cc(-c3cc(F)c(F)c(F)c3)nn2)[C@H]1O [selvigaltin]
Rabbit galectin-3; equivalent to KD of 12 nM, read-out: rabbit galectin-3 KD, equivalent concentration (converted)
  Kd: 12 nM
Rabbit galectin-3; fluorescence polarization, mean ± SD, n = 3, read-out: KD rabbit galectin-3
  Kd: 12 nM
[1]; HFD rabbits
  Ballooning score 0 (no ballooning), share of animals: 0.0%
  Ballooning score 1 (few ballooned cells), share of animals: 66.7%
  Ballooning score 2 (prominent ballooning), share of animals: 33.3%
  Fibrosis (Ishak Score) 0, share of animals: 0.0%
  Fibrosis (Ishak Score) 1, share of animals: 0.0%
  Fibrosis (Ishak Score) 2, share of animals: 33.3%
  Fibrosis (Ishak Score) 3, share of animals: 66.7%
  Fibrosis (Ishak Score) 4, share of animals: 0.0%
  Fibrosis (Ishak Score) 5, share of animals: 0.0%
  Inflammation score 0 (no foci), share of animals: 100.0%
  Inflammation score 1 (<2 foci), share of animals: 0.0%
  Inflammation score 2 (2–4 foci), share of animals: 0.0%
  Inflammation score 3 (> 4 foci), share of animals: 0.0%
[1]; [2]
  Picrosirius Red percentage of fibrosis area: significantly reduced fibrosis to RD levels
  SHG percentage of fibrosis area: normalized
[1]; RD rabbits
  Ballooning score 0 (no ballooning), share of animals: 100.0%
  Ballooning score 1 (few ballooned cells), share of animals: 0.0%
  Ballooning score 2 (prominent ballooning), share of animals: 0.0%
  Fibrosis (Ishak Score) 0, share of animals: 0.0%
  Fibrosis (Ishak Score) 1, share of animals: 0.0%
  Fibrosis (Ishak Score) 2, share of animals: 33.3%
  Fibrosis (Ishak Score) 3, share of animals: 66.7%
  Fibrosis (Ishak Score) 4, share of animals: 0.0%
  Fibrosis (Ishak Score) 5, share of animals: 0.0%
  Inflammation score 0 (no foci), share of animals: 66.7%
  Inflammation score 1 (<2 foci), share of animals: 33.3%
  Inflammation score 2 (2–4 foci), share of animals: 0.0%
  Inflammation score 3 (> 4 foci), share of animals: 0.0%
